From patent US20080153743A1, “METHODS RELATING TO THE TREATMENT OF FIBROSIS” (UNIVERSITY OF WASHINGTON, priority 2005, published 2008)

Columns and labels:
[1] = system: S100A4; assay: RT-PCR for S100A4 in bleomycin treated mice; format: in vivo; conditions: 5 mgs/Kg/day s.c., versus saline/saline mice
[2] = system: E-Cadherin; assay: Western blot for E-Cadherin in IPF patient fibroblasts; format: cell-based, human; conditions: RPMI1640+10% FBS, 2 days, also true at the mRNA level
Procedure: (§1) Western blots for S100A4 (also know as FSP-1 or fibroblast specific protein-1) and E-Cadherin were performed on whole cell lysates.

[3] = system: collagen1A2; assay: RT-PCR for collagen1A2 in bleomycin treated mice; format: in vivo; conditions: 5 mgs/Kg/day s.c., versus saline/saline mice
[4] = system: TCF/β-catenin transcription; assay: Bat-Gal transgenic mice, bleomycin model, X-Gal/β-galactosidase read out of TCF/β-catenin transcription; format: in vivo; conditions: 5 mg/Kg/day s.c., intratracheal bleomycin
Procedure: Furthermore, utilizing a specific inhibitor of Wnt/β-catenin/CBP driven transcription (ICG-001, 5 mg/Kg/day s.c.) Wnt/β-catenin was inhibited by >95% as judged by β-galactogidase activity. ICG-001 is among the structures described in detail below.
Using this murine model of pulmonary fibrosis in transgenic Bat-al mice, ICG-001 (5 mg/Kg/day) blocked >95% of bleomycin-induced TCF/βcatenin transcription.
These mice have a Beta-Galactosidase transgene driven by a TCF/Catenin driven promoter (i.e. a read out for activated Wnt/catenin signaling). The mice were given intratracheal saline or bleomycin and either treated with ICG-001 (5 mgs/Kg/day subcutaneously) or saline as vehicle control. The mice were sacrificed and the lungs sectioned and stained with X-Gal (blue color) A) intratracheal bleo+saline. B) intracheal bleo+ICG-001 C) saline+saline.
The dose was selected because ICG-001 reduces TCF/βCatenin driven O-Galactosidase expression >95% at 5 mgs/Kg/day.

[5] = molecular target: β-catenin/p300 interaction (Homo sapiens, UniProt Q09472); conditions: cited from earlier work
[6] = system: S100A4 (FSP-1); assay: Western blot for S100A4 in IPF patient fibroblasts; format: cell-based, human; conditions: RPMI1640+10% FBS, 2 days, also true at the mRNA level
Procedure: as §1

[7] = molecular target: β-catenin/CBP interaction (Homo sapiens, UniProt Q92793); conditions: cited from earlier work
[8] = system: bleomycin induced pulmonary fibrosis; assay: Bleomycin induced pulmonary fibrosis in C57/B16 mice, trichrome histology, body weight, survival; format: in vivo
Procedure: Murine models of bleomycin induced fibrosis have been developed in order to study fibrotic disease progression.
There is an absence of airway epithelium in lower left compared to upper left (see arrow heads) and extensive collagen deposition (lower left). On the sixth day, either saline (upper right) or ICG-001 (5 mgs/Kg/day) was administered for 10 days after which the mice were sacrificed and sectioned. Of interest is the upper right (saline treatment) showing lack of normal airway epithelialization, extensive collagen deposition and intra-airway hypercellularity (fibroblasts and inflammatory influx).

[9] = 5 mgs/Kg/day for 10 days from the sixth day after intratracheal bleomycin

Chain of β-catenin/CBP interaction (Q92793 whole entry): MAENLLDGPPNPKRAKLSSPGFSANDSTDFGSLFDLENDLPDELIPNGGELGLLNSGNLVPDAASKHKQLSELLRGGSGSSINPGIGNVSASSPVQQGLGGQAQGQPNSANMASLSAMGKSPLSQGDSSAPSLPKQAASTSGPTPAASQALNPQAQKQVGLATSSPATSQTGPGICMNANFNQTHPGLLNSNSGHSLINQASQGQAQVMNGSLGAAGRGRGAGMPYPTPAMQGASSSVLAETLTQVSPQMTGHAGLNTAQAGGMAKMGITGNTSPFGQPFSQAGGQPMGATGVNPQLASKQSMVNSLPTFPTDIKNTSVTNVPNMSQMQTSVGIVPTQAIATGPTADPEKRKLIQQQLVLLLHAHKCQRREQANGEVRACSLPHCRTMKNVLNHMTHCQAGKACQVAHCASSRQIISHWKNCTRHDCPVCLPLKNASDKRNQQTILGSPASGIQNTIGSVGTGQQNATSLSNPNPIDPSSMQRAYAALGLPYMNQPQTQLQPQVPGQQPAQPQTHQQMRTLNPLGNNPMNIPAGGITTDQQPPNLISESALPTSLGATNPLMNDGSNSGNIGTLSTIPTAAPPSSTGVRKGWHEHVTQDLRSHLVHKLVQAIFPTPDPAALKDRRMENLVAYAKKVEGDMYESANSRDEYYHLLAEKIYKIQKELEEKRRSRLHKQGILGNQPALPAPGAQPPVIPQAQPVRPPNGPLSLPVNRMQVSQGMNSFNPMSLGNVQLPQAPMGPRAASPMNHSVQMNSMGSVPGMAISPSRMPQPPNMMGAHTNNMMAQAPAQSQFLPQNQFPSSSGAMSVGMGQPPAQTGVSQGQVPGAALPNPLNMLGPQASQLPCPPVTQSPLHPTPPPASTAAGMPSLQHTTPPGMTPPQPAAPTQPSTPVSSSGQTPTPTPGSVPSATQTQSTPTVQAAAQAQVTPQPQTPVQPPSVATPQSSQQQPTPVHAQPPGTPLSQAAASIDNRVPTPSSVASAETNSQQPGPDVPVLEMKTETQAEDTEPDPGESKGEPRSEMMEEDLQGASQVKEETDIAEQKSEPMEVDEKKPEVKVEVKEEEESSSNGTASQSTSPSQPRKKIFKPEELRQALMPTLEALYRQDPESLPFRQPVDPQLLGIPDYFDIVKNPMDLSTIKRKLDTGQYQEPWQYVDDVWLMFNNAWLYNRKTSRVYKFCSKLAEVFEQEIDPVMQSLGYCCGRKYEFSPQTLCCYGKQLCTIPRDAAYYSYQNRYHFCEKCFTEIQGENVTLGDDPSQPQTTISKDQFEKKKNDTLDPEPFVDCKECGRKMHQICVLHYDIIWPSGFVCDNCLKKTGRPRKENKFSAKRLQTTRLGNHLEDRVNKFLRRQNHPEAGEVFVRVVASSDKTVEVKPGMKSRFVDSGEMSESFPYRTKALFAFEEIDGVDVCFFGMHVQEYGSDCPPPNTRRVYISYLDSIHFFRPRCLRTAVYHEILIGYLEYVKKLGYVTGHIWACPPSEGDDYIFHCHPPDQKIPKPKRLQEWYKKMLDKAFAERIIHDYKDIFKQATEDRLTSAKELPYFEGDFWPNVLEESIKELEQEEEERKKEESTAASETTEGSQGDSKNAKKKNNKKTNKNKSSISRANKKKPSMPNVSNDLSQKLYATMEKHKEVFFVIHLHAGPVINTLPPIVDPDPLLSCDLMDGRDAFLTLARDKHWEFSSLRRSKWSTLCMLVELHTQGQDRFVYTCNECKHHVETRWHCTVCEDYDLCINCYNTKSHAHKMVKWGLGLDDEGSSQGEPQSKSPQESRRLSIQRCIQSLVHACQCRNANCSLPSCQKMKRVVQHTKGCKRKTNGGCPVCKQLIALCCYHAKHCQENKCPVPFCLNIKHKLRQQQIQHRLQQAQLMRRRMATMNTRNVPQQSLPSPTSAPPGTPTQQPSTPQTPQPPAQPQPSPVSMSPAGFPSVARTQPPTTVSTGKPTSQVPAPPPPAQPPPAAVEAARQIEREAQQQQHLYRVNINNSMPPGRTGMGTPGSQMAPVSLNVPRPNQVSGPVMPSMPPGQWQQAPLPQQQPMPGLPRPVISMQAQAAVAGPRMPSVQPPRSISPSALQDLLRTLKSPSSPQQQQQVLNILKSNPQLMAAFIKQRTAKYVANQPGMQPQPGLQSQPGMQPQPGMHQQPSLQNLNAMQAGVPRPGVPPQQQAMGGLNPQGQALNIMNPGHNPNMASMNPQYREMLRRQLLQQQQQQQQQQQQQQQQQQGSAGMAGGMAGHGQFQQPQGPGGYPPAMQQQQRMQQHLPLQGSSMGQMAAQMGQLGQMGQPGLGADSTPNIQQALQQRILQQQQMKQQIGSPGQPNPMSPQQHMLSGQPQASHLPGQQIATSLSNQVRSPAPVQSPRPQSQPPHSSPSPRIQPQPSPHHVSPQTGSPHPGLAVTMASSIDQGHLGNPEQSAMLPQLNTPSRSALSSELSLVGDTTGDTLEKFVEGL
Chain of β-catenin/p300 interaction (Q09472 whole entry): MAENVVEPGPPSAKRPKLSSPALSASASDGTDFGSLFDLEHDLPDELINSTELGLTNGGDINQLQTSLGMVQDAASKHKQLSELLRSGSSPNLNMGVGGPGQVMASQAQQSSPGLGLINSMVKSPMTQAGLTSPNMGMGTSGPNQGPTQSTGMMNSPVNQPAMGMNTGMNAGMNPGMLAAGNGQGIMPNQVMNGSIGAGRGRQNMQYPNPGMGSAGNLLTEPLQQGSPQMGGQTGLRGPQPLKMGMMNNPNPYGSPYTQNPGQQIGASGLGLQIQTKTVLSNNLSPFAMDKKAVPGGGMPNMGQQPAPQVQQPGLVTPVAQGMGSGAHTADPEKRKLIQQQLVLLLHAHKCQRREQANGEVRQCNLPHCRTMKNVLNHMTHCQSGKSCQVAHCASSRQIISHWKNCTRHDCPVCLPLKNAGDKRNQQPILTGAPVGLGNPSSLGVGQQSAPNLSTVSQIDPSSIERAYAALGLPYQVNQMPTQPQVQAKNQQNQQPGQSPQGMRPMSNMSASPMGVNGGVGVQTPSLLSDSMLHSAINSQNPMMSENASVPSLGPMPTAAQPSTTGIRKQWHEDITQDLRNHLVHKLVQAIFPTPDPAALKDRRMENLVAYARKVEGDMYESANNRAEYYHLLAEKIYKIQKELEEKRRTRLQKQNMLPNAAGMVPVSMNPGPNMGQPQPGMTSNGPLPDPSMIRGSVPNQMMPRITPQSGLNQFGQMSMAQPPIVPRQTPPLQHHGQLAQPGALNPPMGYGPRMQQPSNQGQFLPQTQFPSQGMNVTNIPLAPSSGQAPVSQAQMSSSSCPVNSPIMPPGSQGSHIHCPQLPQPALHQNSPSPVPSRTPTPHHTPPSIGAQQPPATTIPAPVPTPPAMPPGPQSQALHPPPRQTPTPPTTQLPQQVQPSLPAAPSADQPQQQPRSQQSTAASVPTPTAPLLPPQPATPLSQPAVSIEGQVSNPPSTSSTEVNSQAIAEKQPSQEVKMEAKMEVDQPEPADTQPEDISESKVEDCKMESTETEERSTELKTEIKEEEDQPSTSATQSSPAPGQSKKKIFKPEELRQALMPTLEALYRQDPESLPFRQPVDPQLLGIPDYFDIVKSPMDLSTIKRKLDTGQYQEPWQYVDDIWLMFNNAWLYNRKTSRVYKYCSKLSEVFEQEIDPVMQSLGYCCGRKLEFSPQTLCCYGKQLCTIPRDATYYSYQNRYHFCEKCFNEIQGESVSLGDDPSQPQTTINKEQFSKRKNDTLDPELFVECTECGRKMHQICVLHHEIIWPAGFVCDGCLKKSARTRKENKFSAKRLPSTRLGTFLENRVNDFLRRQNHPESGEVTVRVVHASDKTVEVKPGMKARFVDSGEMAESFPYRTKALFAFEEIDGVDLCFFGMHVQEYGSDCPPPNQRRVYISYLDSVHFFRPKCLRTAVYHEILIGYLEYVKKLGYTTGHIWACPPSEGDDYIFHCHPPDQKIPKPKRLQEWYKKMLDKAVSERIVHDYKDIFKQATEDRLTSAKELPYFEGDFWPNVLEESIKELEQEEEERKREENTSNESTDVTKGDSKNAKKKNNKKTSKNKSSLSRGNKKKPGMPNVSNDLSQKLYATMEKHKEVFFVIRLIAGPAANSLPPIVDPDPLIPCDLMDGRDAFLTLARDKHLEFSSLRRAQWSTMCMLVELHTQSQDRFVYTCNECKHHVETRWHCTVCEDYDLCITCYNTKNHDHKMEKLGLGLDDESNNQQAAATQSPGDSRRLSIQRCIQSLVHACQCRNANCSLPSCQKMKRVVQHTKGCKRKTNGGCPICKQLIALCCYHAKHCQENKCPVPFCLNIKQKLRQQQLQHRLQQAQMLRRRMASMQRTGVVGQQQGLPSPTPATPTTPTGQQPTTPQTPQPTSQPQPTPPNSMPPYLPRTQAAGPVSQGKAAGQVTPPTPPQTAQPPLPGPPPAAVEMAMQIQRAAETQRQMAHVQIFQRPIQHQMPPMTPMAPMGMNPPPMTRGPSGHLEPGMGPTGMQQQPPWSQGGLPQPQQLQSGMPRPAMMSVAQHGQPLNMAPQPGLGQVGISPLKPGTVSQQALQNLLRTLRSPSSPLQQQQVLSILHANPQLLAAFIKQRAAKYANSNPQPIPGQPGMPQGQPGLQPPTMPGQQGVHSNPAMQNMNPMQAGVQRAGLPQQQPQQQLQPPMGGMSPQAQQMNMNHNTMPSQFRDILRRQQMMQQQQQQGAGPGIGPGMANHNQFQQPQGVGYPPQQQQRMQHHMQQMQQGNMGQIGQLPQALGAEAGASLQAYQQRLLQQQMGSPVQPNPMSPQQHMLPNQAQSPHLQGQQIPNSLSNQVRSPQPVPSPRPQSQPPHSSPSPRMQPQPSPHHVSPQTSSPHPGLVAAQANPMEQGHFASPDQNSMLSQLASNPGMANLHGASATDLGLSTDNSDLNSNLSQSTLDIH

In the case of `O=C1[C@H](Cc2ccc(O)cc2)N2C(=O)CCN(C(=O)NCc3ccccc3)[C@H]2CN1Cc1cccc2ccccc12` [ICG-001], the “S100A4 message (RT-PCR)” value [1] is reported as “reduced essentially to negative control”, the “E-cadherin expression (Western blot, whole cell lysates)” value [2] is reported as “increased E-cadherin expression” and the “collagen1A2 message (RT-PCR)” value [3] is reported as “reduced essentially to negative control”. The “inhibition of bleomycin-induced TCF/β-catenin transcription (β-galactosidase activity)” value [4] was greater than 95%, the “effect on β-catenin/p300 interaction” value [5] was “without interfering” and the “S100A4 expression (Western blot, whole cell lysates)” value [6] was “decreased S100A4 expression”. The “effect on β-catenin/CBP interaction” value [7] was “selectively blocks the β-catenin/CBP interaction”, the “disease progression, as judged by reduced mortality, histopathology and endogenous gene expression” value ([8]; 5 mg/Kg/day, murine bleomycin model) was “not only halts but reverses disease progression” and the “airway histology (lung sections)” value [8, 9] was “the airway looks essentially normal”. The body weight [8, 9] was “regained normal body weight”, the “collagen levels (trichrome stain)” value [8, 9] was “normal collagen levels” and the survival ([8]; 5 mgs/Kg/day for 10 days from the sixth day after intratracheal bleomycin, untreated controls did not survive) was “survived”.
